According to patent publication US11730746B2, “17beta-heterocyclyl-digitalis like compounds for the treatment of heart failure” (priority 2018, dated 2023):
Like-named read-outs stand apart in the source and are kept apart here. Marks after values point to notes of the source that are not given here.

Columns and labels:
SERCA2a = target: T1, SERCA2a (Canis lupus familiaris, UniProt O46674); assay: SERCA2a ATPase activity in heart-derived SR microsomes from normal dog; type: biochemical; conditions: for Vmax (SERCA2a ATPase activity): mean ± SD
T1 construct: pre-incubated with 2 μg of microsomes; from tissue; host or cells: dog heart left ventricle, SR microsomes
Description: Left ventricle tissues were dissected, homogenized in 4 volumes of 10 mM NaHCO3, pH 7, 1 mM PMSF, 10 μg/ml Aprotinin and Leupeptin and centrifuged at 12,000 g for 15 minutes, as published (Nediani C. et al. J Biol Chem. 1996; 271:19066-73). Supernatants were filtered and centrifuged at 100,000 g for 30 min. Contractile proteins were extracted by suspending the pellets with 0.6 M KCl, 30 mM Histidine, pH 7 and further centrifugation at 100,000 g for 30 min. Final pellets were reconstituted with 0.3 M Sucrose, 30 mM Histidine, pH 7.
SERCA2a activity was measured “in vitro” as ^32P-ATP hydrolysis at different Ca^2+ concentrations (100-4000 nM) in the absence and presence of the tested compounds, as described (Micheletti R. et al. Am J Card 2007; 99:24A-32A). Increasing concentrations of each compound (from 1 to 100 nM) were pre-incubated with 2 μg of microsomes for 5 min at 4° C. in 80 μl of a solution containing 100 mM KCl, 5 mM MgCl2, 1 μM A23187, 20 mM Tris, pH 7.5. Then, 20 μl of 5 mM Tris-ATP containing 50 nCi of ^32P-ATP (3-10 Ci/mmol, Perkin Elmer) were added. The ATP hydrolysis was continued for 15 min at 37° C. and the reaction was stopped by acidification with 100 μl of 20% v/v ice-cold perchloric acid. ^32P was separated by centrifugation with activated charcoal (Norit A, SERVA) and the radioactivity was measured. SERCA2a-dependent activity was identified as the portion of total hydrolytic activity inhibited by 10 μM cyclopiazonic acid (Seidler N W. et al. J Biol Chem. 1989; 264:17816-23).
Dose-response curves were fitted by using a sigmoidal curve fitting software and the maximal velocity (Vmax) activity and the Kd Ca^2+ were calculated (Synergy Software KaleidaGraph 3.6).

dog renal Na,K-ATPase = target: T2, dog renal Na,K-ATPase (Canis lupus familiaris, UniProt P50997); assay: Inhibition of dog renal Na,K-ATPase activity (32P-ATP release); type: biochemical
T2 construct: incubated with 0.3 μg of purified dog kidney enzyme; from tissue; host or cells: dog kidney outer medulla
Description: Kidneys were sliced and the outer medulla was dissected, pooled and suspended (1 g/10 ml) in a sucrose-histidine solution, containing 250 mM sucrose, 30 mM histidine and 5 mM EDTA, pH 7.2 and homogenized. […] The pellet was suspended in the sucrose-histidine buffer and incubated for 20 min with a sodium-dodecyl-sulphate (SDS) solution dissolved in a gradient buffer, containing 25 mM imidazole and 1 mM EDTA, pH 7.5. […] The pellet was suspended in the gradient buffer.
Increasing concentrations of the standard ouabain, or tested compound, were incubated with 0.3 μg of purified dog kidney enzyme for 10 min at 37° C. in 120 μl final volume of a medium, containing 140 mM NaCl, 3 mM MgCl2, 50 mM Hepes-Tris, 3 mM ATP, pH 7.5. […] The inhibitory activity was expressed as percent of the control samples carried out in the absence of ouabain or tested compound.

guinea pig = assay: Haemodynamics: inotropic and lethal dose in guinea pig; type: in vivo; conditions: i.v. infusion 0.3 mg/kg/min
Description: Guinea-pigs (400-450 g) were anaesthetized with urethane (1.5 g/kg ip). A microtip pressure transducer was introduced into the left ventricle through the right carotid artery to measure ventricular pressure (LVP); the transducer was coupled with a transducer amplifier. Recordings were fed to a polygraph and analyzed. A polythene cannula was inserted into a jugular vein for drug infusion. After a stabilization period, the test substance was injected at the rate of 0.16 ml/min for 90 min (Micheletti R et al. J Pharmacol Exp Ther 2002; 303:592-600).
The following parameters were obtained: heart rate (HR), left ventricular pressure (LVP), maximal velocity of pressure rise (+dP/dtmax) and decay (−dP/dtmax), ECG. For inotropy, the time elapsed until +dP/dtmax increased by 80% was identified in order to determine the ED80 (dose increasing basal +dP/dtmax by 80%). The time to the maximum increase in +dP/dtmax was also identified to determine the maximum effective dose, EDmax. Lusitropy was characterized by the dose inducing the maximum decrease in −dP/dtmax, (EDmax). As indexes of toxicity, the dose administered until the onset of arrhythmias and the dose inducing death (LD) were calculated. The safety ratio for the tested compound was also calculated as the ratio between LD and ED80.

[1] = system: guinea pig isolated cardiomyocytes; assay: SR Ca2+ uptake function (loading protocol) in isolated ventricular cardiomyocytes; type: cell-based; conditions: 100 nM
Description: The compounds were characterized for their effect on (i) SR Ca^2+ uptake function, (ii) action potential (AP) in myocytes freshly dissociated from guinea-pig ventricles by retrograde coronary perfusion with enzymatic solution (Rocchetti M et al. J Pharmacol Exper Therap 2005; 313(1):207-215).
Drug effects on SR Ca^2+ uptake rate were evaluated with an SR “loading protocol” specifically devised to rule out the contribution of the Na/Ca exchanger (NCX) and to assess the uptake rate starting at low levels of SR Ca^2+ loading. Under voltage-clamp conditions, intracellular Ca^2+ concentration was dynamically measured by epifluorescence (Fluo4-AM). Membrane current, whose time-dependent component mainly reflected ICaL, was simultaneously recorded. The SR loading protocol consisted in emptying the SR (by a brief caffeine pulse) and then progressively refilling it by voltage steps activating Ca^2+ influx through the sarcolemmal Ca^2+ channel (ICaL). NCX was blocked by omission of Na^+ from intracellular and extracellular solutions. The procedure is in agreement with published methods, with minor modifications (Rocchetti M et al. J Pharmacol Exper Therap 2005; 313(1):207-215).
Drug effects on SR Ca^2+ uptake were analysed by considering multiple parameters: 1) the rate at which Ca^2+ transient (CaT) amplitude increased during the loading protocol, which reflects the rate at which the SR refilled and 2) the time constant of cytosolic Ca^2+ decay (Tdecay) within each pulse, reflecting net Ca^2+ transport rate (by SERCA2a) across the SR membrane (a decrease in Tdecay corresponds to enhanced SR Ca^2+ uptake).

[2] = purified dog kidney enzyme, read-out: IC50, inhibition of dog renal Na,K-ATPase

T1 sequence (O46674 whole entry): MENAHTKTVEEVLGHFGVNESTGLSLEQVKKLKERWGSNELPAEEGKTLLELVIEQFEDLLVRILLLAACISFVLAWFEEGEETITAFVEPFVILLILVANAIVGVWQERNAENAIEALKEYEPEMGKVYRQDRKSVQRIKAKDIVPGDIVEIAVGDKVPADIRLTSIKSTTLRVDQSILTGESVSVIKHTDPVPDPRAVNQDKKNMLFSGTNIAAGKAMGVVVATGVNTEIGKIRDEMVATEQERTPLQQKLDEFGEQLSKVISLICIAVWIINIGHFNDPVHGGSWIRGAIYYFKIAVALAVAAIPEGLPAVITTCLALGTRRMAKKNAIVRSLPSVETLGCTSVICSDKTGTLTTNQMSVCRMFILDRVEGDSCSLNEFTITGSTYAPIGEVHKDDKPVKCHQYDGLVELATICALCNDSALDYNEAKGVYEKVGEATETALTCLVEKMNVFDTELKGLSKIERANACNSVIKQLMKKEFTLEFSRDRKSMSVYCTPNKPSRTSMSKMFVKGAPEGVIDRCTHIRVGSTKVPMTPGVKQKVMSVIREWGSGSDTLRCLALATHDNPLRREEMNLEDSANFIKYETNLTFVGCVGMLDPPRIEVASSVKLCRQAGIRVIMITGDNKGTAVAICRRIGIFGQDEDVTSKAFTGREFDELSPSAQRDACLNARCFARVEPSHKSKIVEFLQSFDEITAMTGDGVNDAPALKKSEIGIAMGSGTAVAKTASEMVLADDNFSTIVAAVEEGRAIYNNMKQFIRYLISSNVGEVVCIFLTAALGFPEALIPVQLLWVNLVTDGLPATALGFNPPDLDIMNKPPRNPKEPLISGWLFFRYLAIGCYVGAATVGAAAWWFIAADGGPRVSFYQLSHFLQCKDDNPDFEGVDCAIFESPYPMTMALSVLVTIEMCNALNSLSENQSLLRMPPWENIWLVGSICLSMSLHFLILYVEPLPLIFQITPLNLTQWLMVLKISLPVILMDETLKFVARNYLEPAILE

SMILES | % increase vs Control (SERCA2a Vmax) (SERCA2a; compound 1 nM) | Vmax (SERCA2a ATPase activity) (SERCA2a; compound 1 nM) | % increase vs Control (SERCA2a Vmax) (SERCA2a; compound 10 nM) | Vmax (SERCA2a ATPase activity) (SERCA2a; compound 10 nM) | IC50 (dog renal Na,K-ATPase) [µM] | % increase vs Control (SERCA2a Vmax) (SERCA2a; compound 100 nM) [%*] | Vmax (SERCA2a ATPase activity) (SERCA2a; compound 100 nM) | IC50 (dog renal Na,K-ATPase; [2]) [µM] | also measured
C[C@]12CC[C@H](O)C[C@H]1CCC1C2CC[C@]2(C)[C@@H](c3csc(N=C(N)N)n3)CC[C@]12O (stereo partly drawn) [CVie 102, 3β-hydroxy-5β-10β-methyl-13β-methyl-14β-hydroxy-17β-(2-guanidino-thiazol-4-yl)androstane] | 25%* | 2.949 ± 0.321 (n = 6) μmol/min/mg prot | 13%* | 2.660 ± 0.232 (n = 12) μmol/min/mg prot | 1.7 | – | – | – | Dead/treated number (guinea pig): 11/11; ED80 (guinea pig): 3.8 mg/kg; Lethal dose (guinea pig): 12.57 mg/kg; E max % increase in dP/dtmax (guinea pig; 90 min): 138.3%; ED max (guinea pig; cumulative dose): 8.6 mg/kg; LD/ED80 (guinea pig; safety ratio): 5.42; rate of Ca2+ transient (CaT) increment during SR reloading ([1]; FIG. 1A, 1C): increased; time constant of cytosolic Ca2+ decay within each pulse (τdecay) ([1]; FIG. 1B, 1D): reduced
C[C@]12CC[C@H](O)C[C@H]1CCC1C2CC[C@]2(C)[C@@H](c3cc[nH]n3)CC[C@]12O (stereo partly drawn) [CVie 103, 3β-hydroxy-5β-10β-methyl-13β-methyl-14β-hydroxy-17β-(pyrazol-3-yl)androstane] | – | – | 11%* | 2.569 ± 0.278 (n = 7) μmol/min/mg prot | 4 | 16 | 2.688 ± 0.285 (n = 7) μmol/min/mg prot | – | –
C[C@]12[C@H](O)CC3C(CC[C@@H]4C[C@@H](O)CC[C@]34C)[C@@]1(O)CC[C@@H]2c1c[nH]cn1 (stereo partly drawn) [CVie 104, 3β-hydroxy-5β-10β-methyl-12β-hydroxy-13β-methyl-14β-hydroxy-17β-(imidazol-4-yl)androstane] | 11%* | 1.437 ± 0.158 (n = 4) μmol/min/mg prot | 20%* | 1.551 ± 0.275 (n = 4) μmol/min/mg prot | – | – | – | 1.61 | –
C[C@]12[C@H](O)CC3C(CC[C@@H]4C[C@@H](O)CC[C@]34C)[C@@]1(O)CC[C@@H]2c1csc(N=C(N)N)n1 (stereo partly drawn) [CVie 105, 3β-hydroxy-5β-10β-methyl-12β-hydroxy-13β-methyl-14β-hydroxy-17β-(2-guanidino-thiazol-4-yl)androstane] | – | – | – | – | 0.53 | – | – | – | –
C[C@]12CC[C@H](O)C[C@H]1CCC1C2CC[C@]2(C)[C@@H](c3cn(CCCN)cn3)CC[C@]12O (stereo partly drawn) [CVie 106, 3β-hydroxy-5β-10β-methyl-13β-methyl-14β-hydroxy-17β-(N-(3-aminopropyl)-imidazol-4-yl)androstane] | 22% * | 3.113 ± 0.157 (n = 3) μmol/min/mg prot | 15% | 2.935 ± 0.403 (n = 3) μmol/min/mg prot | – | – | – | 10 | –
C[C@]12CC[C@H](O)C[C@H]1CCC1C2CC[C@]2(C)[C@@H](c3cc(CCCN)on3)CC[C@]12O (stereo partly drawn) [CVie 107, 3β-hydroxy-5β-10β-methyl-13β-methyl-14β-hydroxy-17β-((5-(3-aminopropyl)-isoxazol-3-yl))androstane] | – | – | 7% | 2.508 ± 0.339 (n = 3) μmol/min/mg prot | – | 17 | 2.751 ± 0.171 (n = 3) μmol/min/mg prot | 0.15 | –
C[C@]12CC[C@H](O)C[C@H]1CCC1C2CC[C@]2(C)[C@@H](CCc3cc(CCCN)on3)CC[C@]12O (stereo partly drawn) [CVie 108, 3β-hydroxy-5β-10β-methyl-13β-methyl-14β-hydroxy-17β-((5-(3-aminopropyl)-isoxazol-3-yl)-ethyl)androstane] | 15% | 2.94 ± 0.306 (n = 3) μmol/min/mg prot | 16%* | 2.980 ± 0.441 (n = 4) μmol/min/mg prot | – | – | – | 3.3 | –
C[C@]12CC[C@H](O)C[C@H]1CCC1C2CC[C@]2(C)[C@@H](CCc3cc(CCN)on3)CC[C@]12O (some centres unmarked) [CVie 109] | – | – | 14% | 2.859 ± 0.504 (n = 4) μmol/min/mg prot | – | 15 | 2.889 ± 0.305 (n = 4) μmol/min/mg prot | 1 | –
C[C@]12CC[C@H](O)C[C@H]1CCC1C2CC[C@]2(C)[C@@H](/C=C/c3cc(CN)on3)CC[C@]12O (some centres unmarked) [CVie 110] | 19% | 2.924 ± 0.549 (n = 3) μmol/min/mg prot | 18%* | 2.903 ± 0.188 (n = 3) μmol/min/mg prot | 0.33 | – | – | – | –
C[C@]12CC[C@H](O)C[C@H]1CC[C@@H]1[C@@H]2C[C@@H](O)[C@]2(C)[C@@H](C3=CC(=O)OC3)CC[C@]12O [DIGOXIGENIN, Digoxigenin, reference compound] | – | – | – | – | 0.23 | – | – | – | –
